Data on 1 compound can be found in US20050027103A1, “Structural and cytoskeleton-associated protein” (priority 2001, published 2005).

The assay concerns expression of SEQ ID NO:33 in early confluent human C3C cells. In words: Microarray analysis of SEQ ID NO:33 expression in response to a steroid. The settings on record: 1, 10, and 100 μM beclomethasone for 1, 3, and 6 h. It is filed as cell-based. How it is done:
Total RNA is isolated from tissue samples using the guanidinium thiocyanate method and poly(A)^+ RNA is purified using the oligo-(dT) cellulose method. Each poly(A)^+ RNA sample is reverse transcribed using MMLV reverse-transcriptase, 0.05 pg/μl oligo-(dT) primer (21mer), 1×first strand buffer, 0.03 units/μl RNase inhibitor, 500 μM DATP, 500 μM dGTP, 500 μM dTTP, 40 μM dCTP, 40 μM dCTP-Cy3 (BDS) or dCTP-Cy5 (Amersham Biosciences). The reverse transcription reaction is performed in a […] containing 200 ng poly(A)^+ RNA with GENBRIGHT kits (Incyte). Specific control poly(A)^+ RNAs are synthesized by int vitro transcription from non-coding yeast genomic DNA. After incubation at 37° C. for 2 hr, each reaction sample (one with Cy3 and another with Cy5 labeling) is treated with […] of 0.5M sodiumhydroxide and incubated for 20 minutes at 85° C. to the stop the reaction and degrade the RNA. […]
Sequences of the present invention are used to generate array elements. […] PCR amplification uses primers complementary to the vector sequences flanking the cDNA inset Array elements are amplified in thity cycles of PCR from an initial quantity of 1-2 ng to a final quantity greater than 5 μg. […]

`C[C@H]1C[C@H]2[C@@H]3CCC4=CC(=O)C=C[C@]4(C)[C@@]3(Cl)[C@@H](O)C[C@]2(C)[C@@]1(O)C(=O)CO` [beclomethasone]: the “expression of SEQ ID NO:33 decreased (microarray analysis)” value is on record as “at least 2 fold”.
